Measurements from publication PMC9787607, “A Novel Protocol for the Synthesis of 1,2,4-Oxadiazoles Active against Trypanosomatids and Drug-Resistant Leukemia Cell Lines” (Tropical Medicine and Infectious Disease, 2022).

Legend:
[1] = Cytotoxicity to BALB/c mouse total splenocytes (MTT); type: cell-based; settings: male, total splenocytes (primary), 100 μM, 48 h, compared to the untreated control (Table S1)
Experimental: BALB/c mouse total splenocytes were harvested from male mice between 6–8 weeks old. After euthanasia, the spleens were removed and macerated in DMEM. After centrifugation, the cells were treated with hemolytic ACK buffer at 37 °C for 5 min. […] After incubation for 48 h at 37 °C in 5% CO2, cell viability was determined after the addition of 20 µL per well of a solution containing MTT salt (3.0 mM) and phenazine metasulphate (0.72 mM). After further incubation for 1 h at 37 °C, the medium was removed, and DMSO was added to dissolve the dark-blue formazan crystals formed by MTT reduction. Absorbance was measured on a microplate reader at 570 nm.
(§1) The percent cell or parasite viability was calculated by the formula: % viability = [(A − P)/(N − P)] × 100, A = absorbance of specific well, P = positive control, N = negative control. Determination of half-maximal effective concentrations (EC50), calculated by logarithmic regression, and significance analysis (p < 0.05), using ANOVA and Dunnett’s test, by GraphPad Prism 7.0 software. The results are expressed as the mean and standard deviation (SD) of three independent experiments.

[2] = Cytotoxicity to LLC-MK2 host cells (MTT); type: cell-based; settings: rhesus monkey, LLC-MK2 cells (kidney fibroblasts); screening at 50 μM, 120 h
Experimental: LLC-MK2 kidney fibroblasts (ATCC) and RAW 264.7 macrophages (ATCC) were cultivated in culture flasks in complete DMEM with 5% FBS at 37 °C in 5% CO2. The LLC-MK2 cell monolayer was detached by treatment with trypsin-EDTA 0.05% for 5 min at 37 °C. The RAW cell monolayer was detached mechanically. In both cases, the cells were centrifuged at 480× g for 6 min and resuspended in complete DMEM with 5% FBS, and the cell density was determined by counting with trypan-blue dye exclusion on Neubauer chambers before use.
LLC-MK2 cells were seeded in a 96-well microplate (1.0 × 10^4 cells per well) in complete DMEM with 5% FBS (120 µL per well). After incubation for 24 h at 37 °C in 5% CO2, the medium was renewed, and compounds were added at a range of concentrations in triplicate (50 μM or 100–1 μM). Untreated cells and cells treated with DMEM and 10% DMSO were used as negative and positive controls, respectively. Vehicle control containing DMEM and 0.3% DMSO was maintained for comparison. After incubation for 120 h at 37 °C in 5% CO2, the medium was renewed, and MTT salt solution in PBS was added (3.0 mM, 20 µL per well). After incubation for 2 h at 37 °C in 5% CO2, the supernatant was removed, and MTT formazan was dissolved in DMSO (150 µL per well). Absorbance was measured using a microplate reader at 570 nm.
as §1

K562 = test: MTT cytotoxicity to CML cell line K562; type: cell-based; settings: Homo sapiens, 72 h
Experimental: (§2) The CML cell lines K562, Lucena-1 (K562/VCR), and FEPS (K562/DNR) were cultured in RPMI-1640 medium supplemented with 25 mM HEPES and 2 g L^−1 sodium bicarbonate adjusted to pH 7.4 with NaOH, 100 U penicillin and […] streptomycin. All media were supplemented with 10% FBS. Dr. Vivian M. Rumjanek (Instituto de Bioquímica Médica, UFRJ, Brazil) kindly donated Lucena-1 and FEPS cells. Briefly, K562 cells were exposed to increasing concentrations of the chemotherapeutic drugs vincristine sulfate (VCR) and daunorubicin hydrochloride (DNR) (both from Sigma-Aldrich), as described previously. Lucena-1 (K562/VCR) and FEPS (K562/DNR) cells were cultured in the presence of either 60 nM VCR or 500 nM DNR to maintain the MDR phenotypes. For subcultures, cells were harvested every three days followed by washing with cold FBS, and a final concentration of 2 × 10^4 cells mL^−1 was maintained at 37 °C in 5% CO2.
(§3) Cell viability was determined by the 3-(4,5-dimethylthiazol-2-yl)-2,5-diphenyltetrazolium (MTT) colorimetric assay. CML cells (2 × 10^4 cells·mL^−1) were incubated for 72 h at 37 °C, followed by treatment with compounds at a range of concentrations (100–1 μM). Negative controls were prepared with 0.5% DMSO. An MTT salt solution was added to each well to a final concentration of 0.5 g·L^−1, and plates were incubated at 37 °C in 5% CO2 for 3 h. After centrifugation, 200 μL DMSO was added to dissolve the dark-blue formazan crystals formed by MTT reduction. Absorbance was measured on a microplate reader at 570 nm, which is directly proportional to formazan contents and indicative of living cells.
as §1

[3] = tested on: L. amazonensis promastigotes; test: Anti-L. amazonensis promastigote assessment (MTT); type: cell-based; settings: Leishmania amazonensis; 48 h, MTT; read-out: EC50 L. amazonensis promastigotes
Experimental: Promastigotes of L. amazonensis (MHOM/BR/75/Josefa) were cultured in Schneider’s insect medium (SIM) with 10% FBS. Parasites were harvested at the stationary growth phase for assessment against promastigotes and 24 h after cultures reached the stationary growth phase for infection assays. […]. Complete SIM media and amphotericin B (AmB) at 10 µM were used as negative and positive controls, respectively. A vehicle control containing SIM with 10% SFB media and 0.3% DMSO was maintained for comparison. The final volume of the experiment was 100 µL. After incubation for 48 h at 27 °C, MTT salt solution in PBS was added (3.0 mM, 20 µL per well). After incubation for 2 h at 27 °C, the MTT formazan was dissolved by adding 120 µL of solubilizing buffer (50% isopropanol, 40% acetate buffer pH 5.4, 10% Triton-X). Absorbance was measured using a microplate reader at 570 nm.
as §1

FEPS (K562/DNR) = test: MTT cytotoxicity to MDR CML cell line FEPS; type: cell-based, human; settings: for EC50: Homo sapiens, K562, 72 h, MTT; for RR (relative resistance) FEPS: (EC50 MDR cells)/(EC50 parental cells), FEPS/K562
Experimental: as §2, §3, §1

[4] = tested on: T. cruzi amastigotes (Tulahuen C2C4 LacZ strain); test: microbe, parasite or virus in culture; type: cell-based, Trypanosoma cruzi; settings: Trypanosoma cruzi, TULAHUEN, LLC-MK2, 120 h, screening at 50 μM, 120 h, compared with untreated controls
Experimental: To a monolayer of 1.0 × 10^7 LLC-MK2 cells in a 150 cm^2 culture flask were added 5.0 × 10^7 trypomastigotes of T. cruzi expressing the […] (Tulahuen C2C4 LacZ) in complete DMEM with 2.5% FBS. The infection was allowed to occur for 24 h, the supernatant was removed, and the cell monolayer was washed with PBS. Complete DMEM with 2.5% FBS was renewed every 2 days up to the sixth day after infection. Trypomastigote forms were collected daily from the supernatant between days 7 and 12 after infection, enriched by differential centrifugation (1500× g for 10 min, 5580× g for 20 min), and resuspended in complete DMEM with 5% FBS. Parasite density was determined by counting the mobile trypomastigotes on Neubauer chambers before use.
. The medium was renewed, and trypomastigote forms of T. cruzi (Tulahuen C2C4 LacZ strain, 2.0 × 10^5 parasites per well) were added. After incubation for 24 h at 37 °C in 5% CO2, the cell monolayer was washed with PBS to remove noninternalized parasites. DMEM without phenol red and 5% FBS was added, and infected cells were treated with compounds at a range of concentrations in triplicate (50 μM or 100–1 μM). Untreated infected cells and noninfected LLC-MK2 cells were used as negative and positive controls, respectively. Vehicle control containing DMEM without phenol red and 0.3% DMSO was maintained for comparison. After incubation for 120 h at 37 °C in 5% CO2, a solution containing […] and 0.8% IGEPAL CA-630 in PBS (30 µL per well), followed by further incubation for 2 h at 37 °C in 5% CO2. Absorbance was measured using a microplate reader at 570 nm.
as §1

Lucena-1 (K562/VCR) = test: cells; type: cell-based, human; settings: for EC50: Homo sapiens, Lucena 1, 72 h, read-out: EC50 Lucena-1; for RR (relative resistance) Lucena-1: (EC50 MDR cells)/(EC50 parental cells), Lucena-1/K562
Experimental: as §2, §3, §1

Row | Structure (SMILES) | viability at 48 h, 100 µM [1] | viability at 120 h, 50 µM [2] | EC50 (K562) | EC50 [3] | EC50 (FEPS (K562/DNR)) | viability at 50 µM [4] | EC50 (Lucena-1 (K562/VCR)) | melting point | RR (relative resistance) FEPS (FEPS (K562/DNR)) | RR (relative resistance) Lucena-1 (Lucena-1 (K562/VCR))
1 | C(=C\c1nc(-c2ccccc2)no1)/c1ccccc1 [Compound 9, (E)-3-phenyl-5-[2-phenylvinyl]-1,2,4-oxadiazole] | 102 ± 7.4% | 87.2 ± 4% | > 100 µM | 74.5 ± 4.9 µM | > 100 µM | 87 ± 4.9% | > 100 µM | – | – | –
2 | COc1cccc(/C=C/c2nc(-c3ccccc3)no2)c1 [Compound 10, (E)-3-phenyl-5-[2-(3-methoxyphenyl)vinyl]-1,2,4-oxadiazole] | 85.4 ± 4% | 86.6 ± 3.6% | > 100 µM | 50.8 ± 6.3 µM | > 100 µM | 77.7 ± 6.3% | > 100 µM | 88 to 90 °C | – | –
3 | COc1ccc(/C=C/c2nc(-c3ccccc3)no2)cc1 [Compound 11, (E)-3-phenyl-5-[2-(4-methoxyphenyl)vinyl]-1,2,4-oxadiazole] | 84.4 ± 2.9% | 77.4 ± 4% | > 100 µM | > 100 µM | 58.8 ± 6.1 µM | 86.2 ± 5.3% | > 100 µM | 132 to 135 °C | <0.59 | –
4 | C(=C\c1nc(-c2ccccc2)no1)/c1ccc2c(c1)OCO2 [Compound 13, (E)-3-phenyl-5-[2-(3,4-methylenedioxy-phenyl)vinyl]-1,2,4-oxadiazole] | 98.8 ± 5.1% | 75.9 ± 1.3% | 92.3 ± 4.2 µM | > 100 µM | 68.5 ± 8.7 µM | 72 ± 3.7% | 46.5 ± 1.9 µM | 157 to 159 °C | 0.74 | 0.50
5 | C(=C\c1nc(-c2ccccc2)no1)/c1ccc2c(c1)OCCO2 [Compound 14, (E)-3-phenyl-5-[2-(3,4-ethylenedioxy-phenyl)vinyl]-1,2,4-oxadiazole] | 93.6 ± 5.9% | 84.5 ± 4.6% | > 100 µM | 92.5 ± 3.8 µM | 41.1 ± 4.9 µM | 60.5 ± 3.8% | 64 ± 3.2 µM | 143 to 145 °C | <0.41 | <0.64
